Measured values from patent US12077503B2, “Substituted cyclic amides and their use as herbicides” (FMC CORPORATION, priority 2015, dated 2024).

Experiments:
Type in all cases: in vivo
[1] = test system: ducksalad (Heteranthera limosa); test: Test B flooded paddy test; settings: Heteranthera limosa, 250 g ai/ha, Flood; 0 to 100 scale where 0 is no effect and 100 is complete control; read-out: Ducksalad plant response rating
How it was run: (§1)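 Evaluation by eye, against controls, occurred 13–15 d post-treatment in a greenhouse, using a 0 (no effect) to 100 (complete control) scale. Application was into the paddy water, 3 cm deep over the soil, on 2-leaf plants.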

[2] = test system: barnyardgrass (Echinochloa crus-galli); test: Test B flooded paddy test; settings: Echinochloa crus-galli, 250 g ai/ha, Flood; 0 to 100 scale where 0 is no effect and 100 is complete control; read-out: Barnyardgrass plant response rating
How it was run: as §1

rice (Oryra sativa) = test: Test B flooded paddy test; settings: Oryza sativa, 250 g ai/ha, Flood; 0 to 100 scale where 0 is no effect and 100 is complete control; read-out: Rice plant response rating
How it was run: as §1

[3] = test system: sedge, umbrella (small-flower umbrella sedge, Cyperus difformis); test: Test B flooded paddy test; settings: Cyperus difformis, 250 g ai/ha, Flood; 0 to 100 scale where 0 is no effect and 100 is complete control; read-out: Sedge, Umbrella plant response rating
How it was run: as §1

[4] = test system: ryegrass, Italian (Italian ryegrass, Lolium multiflorum); test: Test A preemergence; settings: Lolium multiflorum, pre-emergence, 240 h, 0 to 100 scale where 0 is no effect and 100 is complete control, read-out: Ryegrass, Italian plant response rating; for pest or weed control at 31 g/ha: 31 g ai/ha, Preemergence; for pest or weed control at 125 g/ha: 125 g ai/ha, preemergence, visual injury rating, approximately 10 d
How it was run: (§2)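 Greenhouse, ~10 d after spray; visual injury vs untreated controls, 0 = no effect, 100 = complete control. Preemergence: directed soil spray over planted seeds. Postemergence: plants 2–10 cm, 1–2 leaf stage. Loam/sand blend. Compound in non-phytotoxic solvent with surfactant.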

[5] = test system: pigweed (Amaranthus retroflexus); test: Test A preemergence; settings: Amaranthus retroflexus, pre-emergence, 240 h, 0 to 100 scale where 0 is no effect and 100 is complete control, read-out: Pigweed plant response rating; for pest or weed control at 31 g/ha: 31 g ai/ha, Preemergence; for pest or weed control at 125 g/ha: 125 g ai/ha, preemergence, visual injury rating, approximately 10 d
[6] = test system: giant foxtail (Setaria faberii); test: Test A preemergence; settings: Setaria faberi, pre-emergence, 240 h, 0 to 100 scale where 0 is no effect and 100 is complete control, read-out: Foxtail, Giant plant response rating; for pest or weed control at 31 g/ha: 31 g ai/ha, Preemergence; for pest or weed control at 125 g/ha: 125 g ai/ha, preemergence, visual injury rating, approximately 10 d
How it was run: as §2

Kochia (Kochia scoparia) [7] = test: Test A preemergence; settings: Bassia scoparia, pre-emergence, 240 h, 0 to 100 scale where 0 is no effect and 100 is complete control, read-out: Kochia plant response rating; for pest or weed control at 31 g/ha: 31 g ai/ha, Preemergence; for pest or weed control at 125 g/ha: 125 g ai/ha, preemergence, visual injury rating, approximately 10 d
How it was run: as §2

[8] = test system: barnyardgrass (Echinochloa crus-galli); test: Test A preemergence; settings: Echinochloa crus-galli, pre-emergence, 240 h, 0 to 100 scale where 0 is no effect and 100 is complete control, read-out: Barnyardgrass plant response rating; for pest or weed control at 31 g/ha: 31 g ai/ha, Preemergence; for pest or weed control at 125 g/ha: 125 g ai/ha, preemergence, visual injury rating, approximately 10 d
How it was run: as §2

[9] = test system: ragweed (common ragweed, Ambrosia elatior); test: Test A preemergence; settings: Ambrosia artemisiifolia, pre-emergence, 240 h, 0 to 100 scale where 0 is no effect and 100 is complete control, read-out: Ragweed plant response rating; for pest or weed control at 31 g/ha: 31 g ai/ha, Preemergence; for pest or weed control at 125 g/ha: 125 g ai/ha, preemergence, visual injury rating, approximately 10 d
How it was run: as §2

[10] = test system: ryegrass, Italian (Italian ryegrass, Lolium multiflorum); test: Test A postemergence; settings: Lolium multiflorum, post-emergence, 240 h, Postemergence, read-out: Ryegrass, Italian plant response rating (0 to 100 scale); for pest or weed control at 125 g/ha: 125 g ai/ha, visual rating about 10 d after treatment; for pest or weed control at 31 g/ha: 31 g ai/ha, 0 is no effect, 100 is complete control
How it was run: as §2

[11] = test system: Galium (catchweed bedstraw, Galium aparine); test: Test A postemergence; settings: Galium, post-emergence, 240 h, Postemergence, read-out: Galium plant response rating (0 to 100 scale); for pest or weed control at 125 g/ha: 125 g ai/ha, visual rating about 10 d after treatment; for pest or weed control at 31 g/ha: 31 g ai/ha, 0 is no effect, 100 is complete control
How it was run: as §2

[12] = test system: pigweed (Amaranthus retroflexus); test: Test A postemergence; settings: Amaranthus retroflexus, post-emergence, 240 h, Postemergence, read-out: Pigweed plant response rating (0 to 100 scale); for pest or weed control at 125 g/ha: 125 g ai/ha, visual rating about 10 d after treatment; for pest or weed control at 31 g/ha: 31 g ai/ha, 0 is no effect, 100 is complete control
How it was run: as §2

[13] = test system: blackgrass (Alopecurus myosuroides); test: Test A postemergence; settings: Alopecurus myosuroides, post-emergence, 240 h, Postemergence, read-out: Blackgrass plant response rating (0 to 100 scale); for pest or weed control at 125 g/ha: 125 g ai/ha, visual rating about 10 d after treatment; for pest or weed control at 31 g/ha: 31 g ai/ha, 0 is no effect, 100 is complete control
How it was run: as §2

[14] = test system: giant foxtail (Setaria faberii); test: Test A postemergence; settings: Setaria faberi, post-emergence, 240 h, Postemergence, read-out: Foxtail, Giant plant response rating (0 to 100 scale); for pest or weed control at 125 g/ha: 125 g ai/ha, visual rating about 10 d after treatment; for pest or weed control at 31 g/ha: 31 g ai/ha, 0 is no effect, 100 is complete control
How it was run: as §2

Kochia (Kochia scoparia) [15] = test: Test A postemergence; settings: Bassia scoparia, post-emergence, 240 h, Postemergence, read-out: Kochia plant response rating (0 to 100 scale); for pest or weed control at 125 g/ha: 125 g ai/ha, visual rating about 10 d after treatment; for pest or weed control at 31 g/ha: 31 g ai/ha, 0 is no effect, 100 is complete control
How it was run: as §2

[16] = test system: barnyardgrass (Echinochloa crus-galli); test: Test A postemergence; settings: Echinochloa crus-galli, post-emergence, 240 h, Postemergence; for pest or weed control at 125 g/ha: 125 g ai/ha, visual rating about 10 d after treatment, read-out: Barnyardgrass plant response rating (0 to 100 scale, 0 no effect, 100 complete control); for pest or weed control at 31 g/ha: 31 g ai/ha, 0 is no effect, 100 is complete control, read-out: Barnyardgrass plant response rating (0 to 100 scale)
How it was run: as §2

[17] = test system: ragweed (common ragweed, Ambrosia elatior); test: Test A postemergence; settings: Ambrosia artemisiifolia, post-emergence, 240 h, Postemergence, read-out: Ragweed plant response rating (0 to 100 scale); for pest or weed control at 125 g/ha: 125 g ai/ha, visual rating about 10 d after treatment; for pest or weed control at 31 g/ha: 31 g ai/ha, 0 is no effect, 100 is complete control
How it was run: as §2

corn (Zea mays) = test: Test A postemergence; settings: Zea mays, post-emergence, 240 h, Postemergence, read-out: Corn plant response rating (0 to 100 scale); for plant injury at 125 g/ha: 125 g ai/ha, visual rating about 10 d after treatment; for plant injury at 31 g/ha: 31 g ai/ha, 0 is no effect, 100 is complete control
How it was run: as §2

[18] = test system: wheat (Triticum aestivum); test: Test A postemergence; settings: Triticum aestivum, post-emergence, 240 h, Postemergence, read-out: Wheat plant response rating (0 to 100 scale); for plant injury at 125 g/ha: 125 g ai/ha, visual rating about 10 d after treatment; for plant injury at 31 g/ha: 31 g ai/ha, 0 is no effect, 100 is complete control
How it was run: as §2

Row | Structure (SMILES) | pest or weed control at 250 g/ha [1] [%] | pest or weed control at 250 g/ha [2] [%] | pest or weed control at 250 g/ha (rice (Oryra sativa)) [%] | pest or weed control at 250 g/ha [3] [%] | pest or weed control at 31 g/ha [4] [%] | pest or weed control at 125 g/ha [4] [%] | pest or weed control at 31 g/ha [5] [%] | pest or weed control at 125 g/ha [5] [%] | pest or weed control at 31 g/ha [6] [%] | pest or weed control at 125 g/ha [6] [%] | pest or weed control at 31 g/ha (Kochia (Kochia scoparia) [7]) [%] | pest or weed control at 125 g/ha (Kochia (Kochia scoparia) [7]) [%] | pest or weed control at 31 g/ha [8] [%] | pest or weed control at 125 g/ha [8] [%] | pest or weed control at 31 g/ha [9] [%] | pest or weed control at 125 g/ha [9] [%] | pest or weed control at 125 g/ha [10] [%] | pest or weed control at 31 g/ha [10] [%] | pest or weed control at 125 g/ha [11] [%] | pest or weed control at 31 g/ha [11] [%] | other results
1 | O=C1NC[C@H](c2cccc(C(F)(F)F)c2)[C@H]1C(=O)Nc1ccccc1-n1cncn1 [Compound 1290] | 0 | 0 | 10 | 0 | 0 | 0 | 0 | 0 | 0 | 0 | 0 | 0 | 0 | 0 | 0 | 0 | 0 | 0 | 0 | 0 | pest or weed control at 125 g/ha [12]: 0%; pest or weed control at 31 g/ha [12]: 0%; pest or weed control at 125 g/ha [13]: 0%; pest or weed control at 31 g/ha [13]: 0%; pest or weed control at 125 g/ha [14]: 0%; pest or weed control at 31 g/ha [14]: 0%; pest or weed control at 125 g/ha (Kochia (Kochia scoparia) [15]): 0%; pest or weed control at 31 g/ha (Kochia (Kochia scoparia) [15]): 0%; pest or weed control at 125 g/ha [16]: 0%; pest or weed control at 31 g/ha [16]: 0%; pest or weed control at 125 g/ha [17]: 0%; pest or weed control at 31 g/ha [17]: 0%; plant injury at 125 g/ha (corn (Zea mays)): 0%; plant injury at 31 g/ha (corn (Zea mays)): 0%; plant injury at 125 g/ha [18]: 0%; plant injury at 31 g/ha [18]: 0%
2 | O=C(Nc1ccc(F)c(F)c1F)[C@H]1C(=O)N(CC(F)F)C[C@@H]1c1cccc(C(F)(F)F)c1 [Compound 1297] | 0 | 0 | 30 | 0 | 0 | 0 | 0 | 0 | 0 | 80 | 0 | 0 | 20 | 20 | 0 | 0 | 0 | 0 | 0 | 0 | pest or weed control at 125 g/ha [12]: 0%; pest or weed control at 31 g/ha [12]: 0%; pest or weed control at 125 g/ha [13]: 0%; pest or weed control at 31 g/ha [13]: 0%; pest or weed control at 125 g/ha [14]: 20%; pest or weed control at 31 g/ha [14]: 0%; pest or weed control at 125 g/ha (Kochia (Kochia scoparia) [15]): 0%; pest or weed control at 31 g/ha (Kochia (Kochia scoparia) [15]): 0%; pest or weed control at 125 g/ha [16]: 20%; pest or weed control at 31 g/ha [16]: 0%; pest or weed control at 125 g/ha [17]: 0%; pest or weed control at 31 g/ha [17]: 0%; plant injury at 125 g/ha (corn (Zea mays)): 0%; plant injury at 31 g/ha (corn (Zea mays)): 0%; plant injury at 125 g/ha [18]: 0%; plant injury at 31 g/ha [18]: 0%
